# Data reported in ChEMBL document CHEMBL1154018, “Esters of betulin and betulinic acid with amino acids have improved water solubility and are selectively cytotoxic toward cancer cells” (Bioorg Med Chem Lett, 2009).
# How the values were obtained:
# [1] = Induction of apoptosis in human EPG85-257P cells assessed as normal cells after 24 hrs by comet assay; assay type: functional
# [2] = Aqueous solubility in DMSO solution at 1 mg; assay type: physicochemical
# [3] = Induction of apoptosis in human EPP85-181P cells assessed as cell accumulation at apoptotic phase after 24 hrs by comet assay; assay type: functional
# [4] = Induction of apoptosis in human EPG85-257P cells assessed as cell accumulation at apoptotic phase after 24 hrs by comet assay; assay type: functional
# [5] = Induction of apoptosis in human EPP85-181P cells assessed as normal cells after 24 hrs by comet assay; assay type: functional
# [6] = Cytotoxicity against daunorubicin-resistant human EPP85-181RDB cells after 24 hrs by SRB method; assay type: functional, cell-based
# [7] = Cytotoxicity against human EPG85-257P cells after 24 hrs by SRB method; assay type: functional, cell-based
# [8] = Cytotoxicity against human EPP85-181P cells after 24 hrs by SRB method; assay type: functional, cell-based
# [9] = Cytotoxicity against daunorubicin-resistant human EPG85-257RDB cells after 24 hrs by SRB method; assay type: functional, cell-based
# [10] = Chemical stability in 0.02M phosphatre buffer of pH 7.4 after 6 days by RP-HPLC; assay type: physicochemical; conditions: pH 7.4, 144 h
SMILES,solubility [2],Stability [10],Activity [1] [%],Activity [3] [%],Activity [4] [%],Activity [5] [%],IC50 [6] [µM],IC50 [7] [µM],IC50 [8] [µM],IC50 [9] [µM]
C=C(C)[C@@H]1CC[C@]2(C(=O)O)CC[C@]3(C)[C@H](CC[C@@H]4[C@@]5(C)CC[C@H](OC(=O)[C@@H](N)CC)C(C)(C)[C@@H]5CC[C@]43C)[C@@H]12,Soluble,,98.3,69.6,1.7,30.4,> 50,33,26,> 50
C=C(C)[C@@H]1CC[C@]2(COC(=O)[C@H](C)N)CC[C@]3(C)[C@H](CC[C@@H]4[C@@]5(C)CC[C@H](O)C(C)(C)[C@@H]5CC[C@]43C)[C@@H]12,Soluble,,58,5.2,42,94,> 50,38,> 50,> 50
C=C(C)[C@@H]1CC[C@]2(COC(=O)[C@@H](N)CCSC)CC[C@]3(C)[C@H](CC[C@@H]4[C@@]5(C)CC[C@H](OC(=O)[C@@H](N)CCSC)C(C)(C)[C@@H]5CC[C@]43C)[C@@H]12,Soluble,,84.9,24.7,15.1,75.3,> 50,31,22,> 50
C=C(C)[C@@H]1CC[C@]2(C(=O)O)CC[C@]3(C)[C@H](CC[C@@H]4[C@@]5(C)CC[C@H](OC(=O)[C@@H](N)Cc6ccccc6)C(C)(C)[C@@H]5CC[C@]43C)[C@@H]12,Soluble,,97.5,3.1,2.5,96.9,> 50,> 50,> 50,> 50
C=C(C)[C@@H]1CC[C@]2(COC(=O)[C@@H](N)Cc3ccccc3)CC[C@]3(C)[C@H](CC[C@@H]4[C@@]5(C)CC[C@H](OC(=O)[C@@H](N)Cc6ccccc6)C(C)(C)[C@@H]5CC[C@]43C)[C@@H]12,Soluble,,91,1,9,99,> 50,> 50,> 50,> 50
C=C(C)[C@@H]1CC[C@]2(COC(=O)CN)CC[C@]3(C)[C@H](CC[C@@H]4[C@@]5(C)CC[C@H](OC(=O)CN)C(C)(C)[C@@H]5CC[C@]43C)[C@@H]12,Soluble,,,0.5,,99.5,> 50,> 50,> 50,> 50
C=C(C)[C@@H]1CC[C@]2(COC(=O)CN)CC[C@]3(C)[C@H](CC[C@@H]4[C@@]5(C)CC[C@H](O)C(C)(C)[C@@H]5CC[C@]43C)[C@@H]12,Soluble,,90.2,1.4,9.8,98.6,> 50,> 50,> 50,> 50
C=C(C)[C@@H]1CC[C@]2(C(=O)O)CC[C@]3(C)[C@H](CC[C@@H]4[C@@]5(C)CC[C@H](O)C(C)(C)[C@@H]5CC[C@]43C)[C@@H]12 [BETULINIC ACID],Soluble,,96,16,4,84,> 50,42,32,> 50
C=C(C)[C@@H]1CC[C@]2(CO)CC[C@]3(C)[C@H](CC[C@@H]4[C@@]5(C)CC[C@H](O)C(C)(C)[C@@H]5CC[C@]43C)[C@@H]12 [BETULIN],Insoluble,,99.5,2,0.5,98,46,26,> 50,> 50

# More lines, main results first:
solubility [2],Stability [10],SMILES,Activity [1] [%],Activity [3] [%],Activity [4] [%],Activity [5] [%],IC50 [6] [µM],IC50 [7] [µM],IC50 [8] [µM],IC50 [9] [µM]
Soluble,,C=C(C)[C@@H]1CC[C@]2(C(=O)O)CC[C@]3(C)[C@H](CC[C@@H]4[C@@]5(C)CC[C@H](OC(=O)[C@H](C)N)C(C)(C)[C@@H]5CC[C@]43C)[C@@H]12,98.6,25.9,1.4,74.1,> 50,48,> 50,> 50
Soluble,,C=C(C)[C@@H]1CC[C@]2(C(=O)O)CC[C@]3(C)[C@H](CC[C@@H]4[C@@]5(C)CC[C@H](OC(=O)[C@@H](N)CCCN)C(C)(C)[C@@H]5CC[C@]43C)[C@@H]12,,99,,1,> 50,9.7,14,> 50
Soluble,,C=C(C)[C@@H]1CC[C@]2(COC(=O)[C@H](C)N)CC[C@]3(C)[C@H](CC[C@@H]4[C@@]5(C)CC[C@H](OC(=O)[C@H](C)N)C(C)(C)[C@@H]5CC[C@]43C)[C@@H]12,0,100,100,0,21,17,4.6,> 50
Soluble,Stable,C=C(C)[C@@H]1CC[C@]2(COC(=O)[C@@H](N)CCCCN)CC[C@]3(C)[C@H](CC[C@@H]4[C@@]5(C)CC[C@H](OC(=O)[C@@H](N)CCCCN)C(C)(C)[C@@H]5CC[C@]43C)[C@@H]12,0,99.5,100,0.5,18,4.1,3.8,> 50
